Molecules are shown by their SMILES. Values joined by “and” are separate entries in the source; they are usually repeats but may differ in a detail not shown here. Equal values may be shown once. Read-outs that look alike come from different tables or passages of the source.

By Tm is commonly meant the temperature at which the thermal transition is half complete. For orientation: ΔTm means the change in melting temperature against a reference sample. For orientation: IC50 means the concentration at which inhibition is half-maximal.

For test [1], the target named is T1, hCA-IX (catalytic domain) (Homo sapiens, UniProt Q16790). The experiment in a line: Thermal shift assay (TSA / differential scanning fluorimetry). To be noted: for ΔTm, median: at 40 µM compound, n = 4. The test is classed as binding. Background: Differential scanning fluorimetry follows unfolding on heating by fluorescence.
The target of test [2] is T2, hCA-II (Homo sapiens, UniProt P00918).
T2 construct: recombinant hCA-IX (catalytic domain) and hCA-II (full-length protein); made in house; host or cells: E. coli
Nature of the test: hCA esterase activity inhibition assay (p-nitrophenyl acetate hydrolysis) with IC50 determination. Format: biochemical. On the procedure: (§1) The catalytic activity of hCA-II and hCA-IX was monitored through the enzymatic hydrolysis of p-nitrophenyl acetate. […]
(§2) hCA esterase activity inhibition screening assay (with IC50 determination) The protocol was adapted from the work by Wu and co-authors.3 Briefly, the catalytic activity of human hCA-IX (catalytic domain) and hCA-II recombinant proteins was monitored by following the hydrolysis of p-nitrophenyl […]
(§3) prepared in DMSO) as a reference compound, were titrated from 200 µM to 0.01 µM at 3× serial dilutions (10-point […]
(§4) HCl, 200 mM NaCl, pH 7.5), and aliquoted into the assay-ready plates with tested compounds immediately prior to the analysis using an automated multichannel dispenser Multidrop Combi (Thermo Fischer Scientific).
(§5) The products of the hydrolysis reaction are acetate and nitrophenolate, which ionizes to give a bright yellow anion […]
(§6) The compounds were formatted into 384-well plates in the following manner. The first two columns (n = 32 wells) […]
(§7) In between, the tested compounds were placed at the defined dilution step of the 10-points concentration curve, each point of which was a quadruplicate (n = 4 wells). Thus, the […]
(§8) deviation of <0.05, were used for further assessment of each point of inhibition curves; they were not shown in the […]
(§9) performed with Labcyte Echo liquid handler to prepare assay-ready plates. Reaction was run in 25 µL of assay buffer […]
(§10) Enzymatic reactions were initiated by pipetting 5 mM stock solution of 4-nitrophenyl acetate (4-NPA) in ethanol to each well (final concentration in the reaction mixture – 0.5 mM for hCA-II and 0.9 mM for hCA-IX). The final reaction volume was 27.5 µL. The enzyme activity was evaluated by monitoring the production of colored product, 4- […]
(§11) SpectraMax M5 (Molecular Devices). The assay was performed twice for each enzyme.
(§12) Each data point of the titration curve was calculated as average of aggregate data value of four measurements per each concentration (technical replicate for each concentration n = 4). The IC50 values were calculated using GraphPad […]
(§13) for maximum inhibition of the enzyme (as described above) and apply this value for further calculation of the percent […]
(§14) Secondly, it was also titrated as one of the tested compounds to ensure that the assay is performing properly withing the given range of the known inhibitor […]
(§15) compounds in Figures S4 and S5.

Test [3] has as its target T1, hCA-IX (catalytic domain). The test is described as above. Format: biochemical. The method, then: as §1, §2, §3, §4, §5, §6, §7, §8, §9, §10, §11, §12, §13, §14, §15
Test [4] addresses hCA-II (full-length protein) (Homo sapiens, UniProt P00918). Nature of the test: Thermal shift assay (TSA / differential scanning fluorimetry). Particulars: for Tm: hCA-II.
The mark [5] stands for this setting: 200 nM hCA-II, 0.5 mM 4-NPA, 10-point curve, n = 4, read-out: IC50.
Setting [6] is: 917 nM hCA-IX, 4-NPA, 10-point curve, n = 4, read-out: IC50.
[7] abbreviates: hCA-II, bound stated, read-out: potency (IC50).
The mark [8] stands for this setting: hCA-IX, bound stated, read-out: potency (IC50).

As for `Cc1cc(C(=O)NS(=O)(=O)c2cccc(-n3cc(-c4ccc5nonc5c4)nn3)c2)on1` [7{2,21,60}], the “ΔTm, median” value in test [1] is 1.17 °C. The midpoint of thermal melting (Tm) was 55.81 °C in test [1] (screening at 20 µM), 57.23 °C in test [1] (screening at 40 µM), 55.24 °C in test [4] (screening at 20 µM) and 55.22 °C in test [4] (screening at 40 µM). Further, the ΔTm in test [1] (screening at 20 µM) was 0.18 °C. Moreover, the half-inhibitory concentration (IC50) is 8.7 µM and 8.74 µM in test [2] (setting [5]); 17.3 µM in test [3] (setting [6]). The thermal shift (ΔTm) at 20 µM in test [4] (read-out: ΔTm) worked out at 0.92 °C. The ΔTm at 40 µM in test [4] (read-out: ΔTm) turned out to be 0.7 °C.
As for `O=C(NS(=O)(=O)c1ccc(-c2cn(CC3COc4ccccc4O3)nn2)cc1)c1cnsc1` (stereo not drawn) [4{17,7,27}], the “ΔTm, median” value in test [1] was found to be 1.44 °C. Besides, the melting temperature (Tm) was found to be 56.91 °C in test [1] (screening at 20 µM), 57.51 °C in test [1] (screening at 40 µM), 54.82 °C in test [4] (screening at 20 µM) and 54.73 °C in test [4] (screening at 40 µM). Moreover, the shift in melting temperature (ΔTm) in test [1] (screening at 20 µM) is 1.28 °C. For the same compound, the half-maximal inhibitory concentration (IC50) in test [2] (setting [5]) was 6.1 µM and 6.07 µM; in test [3] (setting [6]), 23.4 µM. In test [4] (read-out: ΔTm), the ΔTm at 20 µM came to 0.5 °C. The shift in melting temperature (ΔTm) at 40 µM in test [4] (read-out: ΔTm) was 0.21 °C.
Take `Cc1cc(C(=O)NS(=O)(=O)c2ccc(-c3cn(CCN(C)Cc4cccc(F)c4)nn3)cc2)ccn1` [4{16,7,28}]: the “ΔTm, median” value in test [1] amounted to 1.18 °C. Moreover, the Tm in test [1] (screening at 20 µM) turned out to be 56.77 °C; in test [1] (screening at 40 µM), 57.24 °C; in test [4] (screening at 20 µM), 54.35 °C; in test [4] (screening at 40 µM), 51.97 °C. Also, the ΔTm in test [1] (screening at 20 µM) is 1.14 °C. Besides, the IC50 in test [2] (setting [5]) is 1.7 µM; in test [2] (setting [7]), less than 10 µM; in test [3] (917 nM hCA-IX, 4-NPA, 10-point curve, n = 4, listed as 4(16,7,28), read-out: IC50) it was 7.1 µM; in test [3] (setting [6]), 7.13 µM; in test [3] (setting [8]), less than 10 µM. The ΔTm at 20 µM in test [4] (read-out: ΔTm) came to 0.03 °C. In test [4] (read-out: ΔTm, median), the thermal shift (ΔTm) at 40 µM is -2.55 °C.
For the compound `COCC(=O)NS(=O)(=O)c1ccc(-c2cn(CCN(C)Cc3cccc(F)c3)nn2)cc1` [4{16,7,19}], the Tm in test [1] (screening at 20 µM) worked out at 56.80 °C; in test [1] (screening at 40 µM), 56.98 °C; in test [4] (screening at 20 µM), 51.10 °C; in test [4] (screening at 40 µM) it was 49.58 °C. The shift in melting temperature (ΔTm) in test [1] (screening at 20 µM) came out at 1.17 °C; in test [1] (screening at 40 µM) it was 0.92 °C. In addition, the 50% inhibitory concentration (IC50) in test [2] (setting [5]) is 0.2 µM; in test [2] (setting [7]), less than 10 µM; in test [3] (setting [6]), 1.1 µM and 1.11 µM; in test [3] (setting [8]) it was less than 10 µM. Further, the ΔTm at 20 µM in test [4] (read-out: ΔTm) is -3.22 °C. Also, in test [4] (read-out: ΔTm, median), the thermal shift (ΔTm) at 40 µM is -4.95 °C.
